This is an account of results in US20240209036A1, “PEPTIDES AND METHODS OF USE” (priority 2021, published 2024).

Where “and” joins values, the source holds several entries; their conditions need not be identical. Identical values can stand only once. Ends that are not written are not given here.

Assay [1] concerns cecal ligation and puncture (CLP) rat model of intestinal necrosis. The experiment in a line: Cecal ligation and puncture (CLP) survival model. The assay is classed as in vivo. Particulars: for survival, multi-dose regimen: CLP rats, 40 mg/kg at 0.5, 24, 48 and 72 hours after surgery. The protocol:
The previously established CLP model was utilized with modifications. Male Long-Evans rats (250-300 grams) were induced using 5% isoflurane with oxygen and anesthesia was maintained by isoflurane delivered via nose cone at 1.5-2% with oxygen. Adequate anesthesia was confirmed with a toe pinch. The surgical area (lower abdominal quadrants) was shaved, cleaned with 10% iodine and subsequently cleaned with 70% ethanol for a total of three times. For pain management, buprenorphine-SR (1 mg/kg) was given subcutaneously pre-op. For the surgical procedure, animals were in the supine position with their heads oriented away from the operator. After placing a sterile drape, a longitudinal midline incision (approximately 3-4 cm) was made with a sterile scalpel. After the initial incision, small scissors were used to enter the peritoneal cavity. The linea alba of the abdominal musculature was dissected away for intermuscular incision of fascial and peritoneal layers. The cecum was located and exteriorized, the remainder of the bowel was left in the peritoneal cavity. The mesentery of the cecum was dissected away with care taken to avoid damage to the cecal branch of the ileocecal artery and avoid bleeding complications. The cecum was ligated at 75% using sterile 3-0 non-absorbable suture. The cecum was perforated twice by through-and-through punctures using a sterile 18-gauge needle midway between the ligation and the tip of the cecum in a mesenteric-to-antimesenteric direction. The cecum was relocated into the abdominal cavity. The peritoneum was closed using 4-0 non-absorbable sutures and the skin was closed with sterile metallic wound clips. The animals received 5 mL of prewarmed (37° C.) normal saline subcutaneously for recovery. […] The peptide, consisting of the amino acid sequence […] (SEQ ID NO: 2) with a monodisperse, 24mer polyethylene glycol (PEG) tail, was manufactured by PolyPeptide Group (San Diego, CA) to >95% purity as verified by HPLC and mass spectrometry analysis. Lyophilized RLS-0071 was solubilized in 0.05 M Histidine buffer and pH adjusted to 6.5. […] Animals were monitored every 30 minutes for at least two hours post-surgery. Once bright, alert, and responsive, the animals were placed back into their home cage. A quantitative assessment of morbidity was conducted on the animals twice a day for the duration of the study. (Shrum, B., Anantha, R. V., Xu, S. X. et al. A robust scoring system to evaluate sepsis severity in an animal model. BMC Res Notes 7, 233 (2014). https://doi.org/10.1186/1756-0500-7-233). Scoring criteria included appearance, level of consciousness, activity, response to stimulus, eyes open vs. closed, respiration rate and respiration quality. […] The animals were subsequently monitored at a minimum of twice/day. […]

Assay [2] relates to free DNA in plasma (biomarker for NETs). The experiment in a line: Plasma free DNA by PicoGreen in CLP rats. The assay is classed as in vivo, rat. Particulars: single dose RLS-0071, 24 hours post-surgery. Here is the method:
(§1) Blood samples were collected before surgery (pre-bleed) and 24 hours after surgery. Plasma was isolated from the blood and analyzed for free DNA concentration and cytokines levels as described below.
Free DNA was measured by PicoGreen in rat plasma samples as previously described Briefly, plasma samples were diluted in 10 mM Tris-HCl, 1 mM EDTA, pH 8.0 (TE) buffer and 50 uL of each sample was added to the wells along with 50 uL of a 1:200 dilution of PicoGreen (Life Technologies, Carlsbad, CA, USA) and incubated at room temperature for 10 minutes, protected from light. A DNA standard curve was prepared in TE buffer. The fluorescence was then read at an excitation wavelength of 485 nm and an emission wavelength of 520 nm using a BioTek microplate reader. All free DNA measurements were done in triplicate.

The next assay relates to IL-6. The experiment in a line: Plasma IL-6 ELISA in CLP rats. The class given is in vivo, rat. Particulars: single dose RLS-0071, 24 hours post-surgery. Here is the method: as §1
The Rat IL-6 ELISA was purchased from R&D Systems. Plasma samples from experimental animals were run according to the manufacturer's instructions. Briefly, diluted rat plasma samples were added to wells pre-coated with capture IL-6 antibodies overnight. The plate was blocked for 60 min at room temperature with 1% BSA. 100 uL of plasma samples (diluted 1:4) or standards was added to the plate and incubated at room temperature for 2 hrs, then any unbound components were removed by washing. Next, 100 μL of detection IL-6 antibody (diluted 1:60) was added and incubated for 2 hrs at room temperature and washed. Next, 100 μL of streptavidin-horseradish peroxidase (HIRP) conjugate (diluted 1:40) was added and incubated in the dark for 20 minutes at room temperature. Following washing, 100 μL of 3,3′,5,5′-tetramethylbenzidine (TMB) substrate was added for approximately 5 minutes at room temperature. The reaction was stopped with the addition of 100 μL of sulfuric acid and absorbance measured at 450 nm using a BioTek microplate reader. Sample concentrations were calculated using an IL-6 standard curve made with 1:2 serial dilutions.

The test system of another assay is complement system. Particulars: previously demonstrated in vitro assays; cited from earlier work.

Consider “IALILEP(Sar)CCQERAA (IALILEPXCCQERAA; sarcosine at position 8; MOD_RES (8)..(8) Sarcosine) [RLS-0088, PA peptide with isoleucine at position 8 replaced by sarcosine]”, for which the “survival, multi-dose regimen” value in assay [1] is listed as “increase in survival”.

“IALILEPICCQERAA-PEG24 (IALILEPICCQERAA-dPEG24; cysteine pairing not given here) [RLS-0071, 15 amino acid peptide with a C-terminal monodisperse 24-mer PEGylated moiety]”: the “survival, multi-dose regimen” value in assay [1] was “significant increase in survival”. In assay [1] (male Long-Evans rats, 75% CLP, single dose 40 mg/kg i.v. 30 minutes after surgery, assessed up to 5 days, 40 mg/kg), the survival is 80% and 50%. The “increase in survival compared to no-rescue treatment group” value in assay [1] (single dose 40 mg/kg i.v. 30 minutes after surgery) amounted to 2.5 fold. Further, the “level of free DNA in blood compared to animals not receiving treatment” value in assay [2] was “reduction in the level of free DNA”. In addition, in the assay on IL-6, the “IL-6 level in blood compared with no-rescue-intervention animals” value was “reduction in IL-6”. For the same substance, the “inhibition of the complement system” value in the assay on complement system is on record as “strong inhibition of the complement system”.
